Measurements: paper PMC5218480 (PLoS ONE, 2017)

Tested on: MV-4-11 cells
Assay: Gene expression microarray analysis (Affymetrix PrimeView) and GSEA
Type: cell-based, human
Set-up: RFU PODN (11730768_x_at) / Fold change /veh PODN (11730768_x_at) / RFU LINC00158 (11744669_a_at) / Fold change /veh LINC00158 (11744669_a_at) / RFU DUSP10 (11751237_a_at) / Fold change /veh DUSP10 (11751237_a_at) / RFU ID3 (11757404_x_at) / Fold change /veh ID3 (11757404_x_at) / RFU PLEKHG5 (11737974_s_at) / Fold change /veh PLEKHG5 (11737974_s_at) / RFU LRRC4B (11730491_at) / Fold change /veh LRRC4B (11730491_at) / RFU GIMAP4 (11747438_a_at) / Fold change /veh GIMAP4 (11747438_a_at) / RFU KRT8 (11758183_x_at) / Fold change /veh KRT8 (11758183_x_at) / RFU CNN1 (11734310_a_at) / Fold change /veh CNN1 (11734310_a_at) / RFU VPS37D (11726825_at) / Fold change /veh VPS37D (11726825_at) / RFU C10orf10 (11716522_x_at) / Fold change /veh C10orf10 (11716522_x_at) / RFU KIR2DL2 /// KIR2DL4 /// KIR2DL5A /// KIR2DL5B /// KIR2DS1 /// KIR2DS2 /// KIR2DS3 /// KIR2DS4 /// KIR3DL3 /// KIR3DL3 /// KIR3DS1 (11738374_at) / Fold change /veh KIR2DL2 /// KIR2DL4 /// KIR2DL5A /// KIR2DL5B /// KIR2DS1 /// KIR2DS2 /// KIR2DS3 /// KIR2DS4 /// KIR3DL3 /// KIR3DL3 /// KIR3DS1 (11738374_at) / RFU C1QL1 (11718748_at) / Fold change /veh C1QL1 (11718748_at) / RFU TMPRSS4 (11747572_a_at) / Fold change /veh TMPRSS4 (11747572_a_at) / RFU HAMP (11756126_x_at) / Fold change /veh HAMP (11756126_x_at) / RFU RNFT2 (11725882_a_at) / Fold change /veh RNFT2 (11725882_a_at) / RFU NR4A2 (11747474_a_at) / Fold change /veh NR4A2 (11747474_a_at) / RFU ABCC12 (11746883_a_at) / Fold change /veh ABCC12 (11746883_a_at) / RFU TMEM136 (11760407_x_at) / Fold change /veh TMEM136 (11760407_x_at) / RFU CLDN22 /// WWC2 (11732394_at) / Fold change /veh CLDN22 /// WWC2 (11732394_at) / RFU HLA-DPB1 (11760878_x_at) / Fold change /veh HLA-DPB1 (11760878_x_at) / RFU SPINT1 (11716480_a_at) / Fold change /veh SPINT1 (11716480_a_at) / RFU GAP43 (11754022_s_at) / Fold change /veh GAP43 (11754022_s_at) / RFU A4GNT (11735810_at) / Fold change /veh A4GNT (11735810_at) / RFU PRB3 (11715151_x_at) / Fold change /veh PRB3 (11715151_x_at) / RFU TUBB4B (11761932_at) / Fold change /veh TUBB4B (11761932_at) / RFU CAPN14 (11732068_a_at) / Fold change /veh CAPN14 (11732068_a_at) / RFU TMCC2 (11721928_a_at) / Fold change /veh TMCC2 (11721928_a_at) / RFU IRGQ (11745062_a_at) / Fold change /veh IRGQ (11745062_a_at) / RFU FAM174B (11720279_a_at) / Fold change /veh FAM174B (11720279_a_at) / RFU TMPRSS4 (11748680_a_at) / Fold change /veh TMPRSS4 (11748680_a_at) / RFU FAM212B (11763350_a_at) / Fold change /veh FAM212B (11763350_a_at) / RFU PLEKHG5 (11743358_a_at) / Fold change /veh PLEKHG5 (11743358_a_at) / RFU ZSCAN30 (11745921_a_at) / Fold change /veh ZSCAN30 (11745921_a_at) / RFU CMKLR1 (11741424_a_at) / Fold change /veh CMKLR1 (11741424_a_at) / RFU LOC101060620 /// MAPK8IP1 (11723275_at) / Fold change /veh LOC101060620 /// MAPK8IP1 (11723275_at) / RFU SPTSSB (11747773_x_at) / Fold change /veh SPTSSB (11747773_x_at) / RFU PRSS12 (11739890_at) / Fold change /veh PRSS12 (11739890_at) / RFU BIN1 (11741810_x_at) / Fold change /veh BIN1 (11741810_x_at) / RFU WNT11 (11732464_a_at) / Fold change /veh WNT11 (11732464_a_at) / RFU C10orf10 (11716521_a_at) / Fold change /veh C10orf10 (11716521_a_at) / RFU C5orf56 (11738089_at) / Fold change /veh C5orf56 (11738089_at) / RFU CYB561 (11721691_x_at) / Fold change /veh CYB561 (11721691_x_at) / RFU ANKRD19P (11752326_a_at) / Fold change /veh ANKRD19P (11752326_a_at) / RFU OR2T12 /// OR2T33 /// OR2T8 (11738714_s_at) / Fold change /veh OR2T12 /// OR2T33 /// OR2T8 (11738714_s_at) / RFU VCAN (11748164_a_at) / Fold change /veh VCAN (11748164_a_at) / RFU JSRP1 (11732532_at) / Fold change /veh JSRP1 (11732532_at) / RFU KRTAP10-11 (11738290_x_at) / Fold change /veh KRTAP10-11 (11738290_x_at) / RFU MYO3A (11730013_a_at) / Fold change /veh MYO3A (11730013_a_at) / RFU EBF3 (11725865_a_at) / Fold change /veh EBF3 (11725865_a_at) / RFU CAMK2N1 (11719241_x_at) / Fold change /veh CAMK2N1 (11719241_x_at) / RFU C5orf56 (11738088_a_at) / Fold change /veh C5orf56 (11738088_a_at) / RFU OLFML3 (11715873_a_at) / Fold change /veh OLFML3 (11715873_a_at) / RFU LOC100653217 /// NTM (11731650_a_at) / Fold change /veh LOC100653217 /// NTM (11731650_a_at) / RFU MAPK11 (11762145_a_at) / Fold change /veh MAPK11 (11762145_a_at) / RFU FIZ1 (11724087_x_at) / Fold change /veh FIZ1 (11724087_x_at) / RFU OASL (11726364_x_at) / Fold change /veh OASL (11726364_x_at) / RFU SOX15 (11748057_x_at) / Fold change /veh SOX15 (11748057_x_at) / RFU CD79A (11719716_a_at) / Fold change /veh CD79A (11719716_a_at) / RFU HIST1H1D (11736915_at) / Fold change /veh HIST1H1D (11736915_at) / RFU CASKIN2 (11723855_a_at) / Fold change /veh CASKIN2 (11723855_a_at) / RFU LOC730098 (11760151_x_at) / Fold change /veh LOC730098 (11760151_x_at) / RFU OR4N2 (11742367_at) / Fold change /veh OR4N2 (11742367_at) / RFU PRRT2 (11749266_a_at) / Fold change /veh PRRT2 (11749266_a_at) / RFU SNX32 (11753110_a_at) / Fold change /veh SNX32 (11753110_a_at) / RFU CDHR5 (11726645_a_at) / Fold change /veh CDHR5 (11726645_a_at) / RFU RCAN1 (11760418_a_at) / Fold change /veh RCAN1 (11760418_a_at) / RFU FAM167A (11723789_a_at) / Fold change /veh FAM167A (11723789_a_at) / RFU FAM26E (11764081_at) / Fold change /veh FAM26E (11764081_at) / RFU ISYNA1 (11749810_s_at) / Fold change /veh ISYNA1 (11749810_s_at) / RFU ACY1 (11761880_at) / Fold change /veh ACY1 (11761880_at) / RFU 11764098_at / Fold change /veh 11764098_at / RFU SAMD14 (11745864_x_at) / Fold change /veh SAMD14 (11745864_x_at) / RFU NPB (11741838_a_at) / Fold change /veh NPB (11741838_a_at) / RFU TMPRSS6 (11731388_a_at) / Fold change /veh TMPRSS6 (11731388_a_at) / RFU KRTAP10-2 (11738614_at) / Fold change /veh KRTAP10-2 (11738614_at) / RFU ARHGAP8 /// PRR5-ARHGAP8 (11727945_x_at) / Fold change /veh ARHGAP8 /// PRR5-ARHGAP8 (11727945_x_at) / RFU KRTAP5-7 /// NADSYN1 (11734609_at) / Fold change /veh KRTAP5-7 /// NADSYN1 (11734609_at) / RFU RASL12 (11751679_a_at) / Fold change /veh RASL12 (11751679_a_at) / RFU CDKN2B (11736163_a_at) / Fold change /veh CDKN2B (11736163_a_at) / RFU PRF1 (11729649_at) / Fold change /veh PRF1 (11729649_at) / RFU, ZNF638 /// ZNF638-IT1 / Fold change vs veh, ZNF638 /// ZNF638-IT1 / RFU, PANK3 / Fold change vs veh, PANK3 / RFU, SH3YL1 / Fold change vs veh, SH3YL1 / RFU, ZEB2 / Fold change vs veh, ZEB2 / RFU, NRIP1 / Fold change vs veh, NRIP1 / RFU, PTTG1IP / Fold change vs veh, PTTG1IP / RFU, CAPN2 / Fold change vs veh, CAPN2 / RFU, MED14 / Fold change vs veh, MED14 / RFU, SNORA58 / Fold change vs veh, SNORA58 / RFU, C1orf63 / Fold change vs veh, C1orf63 / RFU, LRRFIP1 / Fold change vs veh, LRRFIP1 / RFU, NDUFAF7 / Fold change vs veh, NDUFAF7 / RFU, SLC12A2 / Fold change vs veh, SLC12A2 / RFU, IBTK / Fold change vs veh, IBTK / RFU, ESF1 / Fold change vs veh, ESF1 / Fold change vs veh, TMEM50B / RFU, TAOK1 / Fold change vs veh, TAOK1 / RFU, ACBD3 / Fold change vs veh, ACBD3 / RFU, TMA16 / Fold change vs veh, TMA16 / RFU, RWDD3 / Fold change vs veh, RWDD3 / RFU, BCAT1 / Fold change vs veh, BCAT1 / RFU, EDEM3 / Fold change vs veh, EDEM3 / RFU, TMEM33 / Fold change vs veh, TMEM33 / RFU, WDR75 / Fold change vs veh, WDR75 / RFU, AHCTF1 / Fold change vs veh, AHCTF1 / RFU, TFRC / Fold change vs veh, TFRC / RFU, ZDHHC17 / Fold change vs veh, ZDHHC17 / RFU, NOM1 / Fold change vs veh, NOM1 / RFU, ARL8B / Fold change vs veh, ARL8B / RFU, ZBTB11 / Fold change vs veh, ZBTB11 / RFU, TAMM41 / Fold change vs veh, TAMM41 / RFU, KIAA1704 /// LOC100996395 / Fold change vs veh, KIAA1704 /// LOC100996395 / RFU, ING1 / Fold change vs veh, ING1 / RFU, TRMT61B / Fold change vs veh, TRMT61B / RFU, FUBP3 / Fold change vs veh, FUBP3 / RFU, TP53 / Fold change vs veh, TP53 / RFU, TNKS2 / Fold change vs veh, TNKS2 / RFU, ZFP14 / Fold change vs veh, ZFP14 / RFU, ACTR2 / Fold change vs veh, ACTR2 / RFU, PPP3R1 / Fold change vs veh, PPP3R1 / RFU, PIK3R1 / Fold change vs veh, PIK3R1 / RFU, HNRNPA1 / Fold change vs veh, HNRNPA1 / RFU, RNF170 / Fold change vs veh, RNF170 / RFU, ZNF28 / Fold change vs veh, ZNF28 / RFU, RNGTT / Fold change vs veh, RNGTT / RFU, OGT / Fold change vs veh, OGT / RFU, BRD1 / Fold change vs veh, BRD1 / RFU, MARS / Fold change vs veh, MARS / RFU, ZNF655 / Fold change vs veh, ZNF655 / RFU, FAHD1 / Fold change vs veh, FAHD1 / RFU, BDP1 / Fold change vs veh, BDP1 / RFU, LRRCC1 / Fold change vs veh, LRRCC1 / RFU, ARID1A / Fold change vs veh, ARID1A / RFU, ZNF146 / Fold change vs veh, ZNF146 / RFU, ZNF330 / Fold change vs veh, ZNF330 / RFU, GPN3 / Fold change vs veh, GPN3 / RFU, C9orf123 / Fold change vs veh, C9orf123 / RFU, N4BP2L2 / Fold change vs veh, N4BP2L2 / RFU, ARFIP1 / Fold change vs veh, ARFIP1 / RFU, FAM179B / Fold change vs veh, FAM179B / RFU, BCL10 / Fold change vs veh, BCL10 / RFU, UHRF1BP1L / Fold change vs veh, UHRF1BP1L / RFU, BET1 / Fold change vs veh, BET1 / RFU, CNOT2 / Fold change vs veh, CNOT2 / RFU, ZNF268 / Fold change vs veh, ZNF268 / Fold change vs veh, ZNF507 / RFU, DGCR2 / Fold change vs veh, DGCR2 / RFU, WDSUB1 / Fold change vs veh, WDSUB1 / Fold change vs veh, HSP90B1 /// MIR3652 / RFU, ADSS / Fold change vs veh, ADSS / RFU, GK / Fold change vs veh, GK / RFU, ZNF148 / Fold change vs veh, ZNF148 / RFU, TAF9 / Fold change vs veh, TAF9 / RFU, SLC1A5 / Fold change vs veh, SLC1A5 / RFU, SLMO2 / Fold change vs veh, SLMO2 / RFU, ABCC4 / Fold change vs veh, ABCC4 / RFU, LOC101060439 /// RAP1B / Fold change vs veh, LOC101060439 /// RAP1B / RFU, RFX7 / Fold change vs veh, RFX7 / RFU, GTPBP10 / Fold change vs veh, GTPBP10 / RFU, CNEP1R1 / Fold change vs veh, CNEP1R1 / RFU, BIVM-ERCC5 /// ERCC5 / Fold change vs veh, BIVM-ERCC5 /// ERCC5 / RFU, ILF3 / Fold change vs veh, ILF3 / RFU 11762660_at / Fold change /veh 11762660_at / RFU VCAN (11757783_s_at) / Fold change /veh VCAN (11757783_s_at) / RFU DDX43 (11728927_at) / Fold change /veh DDX43 (11728927_at) / RFU KRT8 (11758188_x_at) / Fold change /veh KRT8 (11758188_x_at) / RFU NKD1 (11759106_at) / Fold change /veh NKD1 (11759106_at) / RFU SRD5A1 (11742802_a_at) / Fold change /veh SRD5A1 (11742802_a_at) / RFU TPSAB1 /// TPSB2 (11721975_s_at) / Fold change /veh TPSAB1 /// TPSB2 (11721975_s_at) / RFU GSTM3 (11746129_a_at) / Fold change /veh GSTM3 (11746129_a_at) / RFU IL23R (11737362_x_at) / Fold change /veh IL23R (11737362_x_at) / RFU TMEM51 (11727254_a_at) / Fold change /veh TMEM51 (11727254_a_at) / RFU PIWIL2 (11732686_x_at) / Fold change /veh PIWIL2 (11732686_x_at) / RFU ORM1 (11744905_x_at) / Fold change /veh ORM1 (11744905_x_at) / RFU CCDC152 (11743942_at) / Fold change /veh CCDC152 (11743942_at) / RFU ECM1 (11717891_a_at) / Fold change /veh ECM1 (11717891_a_at) / RFU IL23R (11748794_a_at) / Fold change /veh IL23R (11748794_a_at) / RFU TNFAIP8L3 (11732012_x_at) / Fold change /veh TNFAIP8L3 (11732012_x_at) / RFU MBOAT4 (11741988_at) / Fold change /veh MBOAT4 (11741988_at) / RFU 11764193_at / Fold change /veh 11764193_at / RFU TMEM53 (11763286_at) / Fold change /veh TMEM53 (11763286_at) / RFU MAGEB2 (11727129_at) / Fold change /veh MAGEB2 (11727129_at) / RFU TMEM200A (11744735_a_at) / Fold change /veh TMEM200A (11744735_a_at) / RFU CCDC152 (11751479_a_at) / Fold change /veh CCDC152 (11751479_a_at) / RFU FAM211A (11726209_a_at) / Fold change /veh FAM211A (11726209_a_at) / RFU RGS16 (11746705_a_at) / Fold change /veh RGS16 (11746705_a_at) / RFU VCAN (11755009_s_at) / Fold change /veh VCAN (11755009_s_at) / RFU RHOB (11743442_s_at) / Fold change /veh RHOB (11743442_s_at) / RFU RGS16 (11720943_a_at) / Fold change /veh RGS16 (11720943_a_at) / RFU RGS16 (11720944_at) / Fold change /veh RGS16 (11720944_at) / RFU, VPS4B / Fold change vs veh, VPS4B / RFU, CREB1 / Fold change vs veh, CREB1 / RFU, DNAJC13 / Fold change vs veh, DNAJC13 / RFU, GNAQ / Fold change vs veh, GNAQ / RFU, CDK5R1 / Fold change vs veh, CDK5R1 / RFU, ZRANB3 / Fold change vs veh, ZRANB3 / RFU, CUL4A / Fold change vs veh, CUL4A / RFU, CCNY / Fold change vs veh, CCNY / RFU, UFL1 / Fold change vs veh, UFL1 / RFU, COG3 / Fold change vs veh, COG3 / RFU, DIAPH2 / Fold change vs veh, DIAPH2 / RFU, SKA2 / Fold change vs veh, SKA2 / RFU, AFF3 / Fold change vs veh, AFF3 / RFU, LMF1 / Fold change vs veh, LMF1 / RFU, IPO11 / Fold change vs veh, IPO11 / RFU, DFFB / Fold change vs veh, DFFB / RFU, FOXP1 / Fold change vs veh, FOXP1 / RFU, CARD8 / Fold change vs veh, CARD8 / RFU, STRN3 / Fold change vs veh, STRN3 / RFU, ADK / Fold change vs veh, ADK / RFU, RASSF2 / Fold change vs veh, RASSF2 / RFU, WIPF1 / Fold change vs veh, WIPF1 / RFU, LARP1B / Fold change vs veh, LARP1B / RFU, RASA1 / Fold change vs veh, RASA1 / RFU, RB1 / Fold change vs veh, RB1 / RFU, PPFIA1 / Fold change vs veh, PPFIA1 / RFU, MAT2A / Fold change vs veh, MAT2A / RFU, CCT5 / Fold change vs veh, CCT5 / RFU, WDR92 / Fold change vs veh, WDR92 / RFU, CUX1 / Fold change vs veh, CUX1 / RFU, TTC7A / Fold change vs veh, TTC7A / RFU, TMEM135 / Fold change vs veh, TMEM135 / RFU, DEPTOR / Fold change vs veh, DEPTOR / RFU, CPM / Fold change vs veh, CPM / RFU, DNAJB6 / Fold change vs veh, DNAJB6 / RFU, CACNA2D3 / Fold change vs veh, CACNA2D3 / RFU, DTX4 / Fold change vs veh, DTX4 / RFU, TFCP2 / Fold change vs veh, TFCP2 / RFU, GMCL1 /// GMCL1P1 / Fold change vs veh, GMCL1 /// GMCL1P1 / RFU, AEBP2 / Fold change vs veh, AEBP2 / RFU, SNHG1 /// SNORD22 /// SNORD25 /// SNORD26 /// SNORD27 /// SNORD28 /// SNORD29 /// SNORD31 / Fold change vs veh, SNHG1 /// SNORD22 /// SNORD25 /// SNORD26 /// SNORD27 /// SNORD28 /// SNORD29 /// SNORD31 / Fold change (Aza/veh), C12orf56 (ProbeSet 11735607_a_at) / Fold change (ACY-1035/veh), C12orf56 (ProbeSet 11735607_a_at) / Fold change (Aza/veh), FGFR1OP (ProbeSet 11751329_s_at) / Fold change (ACY-1035/veh), FGFR1OP (ProbeSet 11751329_s_at) / Fold change (Aza/veh), VPS36 (ProbeSet 11739960_a_at) / Fold change (ACY-1035/veh), VPS36 (ProbeSet 11739960_a_at) / RFU SYPL1 (11715823_x_at) / Fold change /veh SYPL1 (11715823_x_at) / RFU IGFBP7 (11715501_s_at) / Fold change /veh IGFBP7 (11715501_s_at) / RFU REEP3 (11722064_at) / Fold change /veh REEP3 (11722064_at) / RFU IGLL1 (11728026_x_at) / Fold change /veh IGLL1 (11728026_x_at): dose or concentration left out as unconfirmed
Conditions: ProbeSet 11743929_at; LIST B

## Nc1ncn([C@@H]2O[C@H](CO)[C@@H](O)[C@H]2O)c(=O)n1 [azacitidine]
  Fold change vs veh, UHRF1BP1L: 0.95
